Where two headings read alike, the source gives them in different places.
How the values were obtained:
[1] = target: T1, Human UII (U-II receptor) in 6D9 human rhabdomyosarcoma cells (Homo sapiens, UniProt Q9UKP6); experiment: Human UII Calcium Mobilization Assay; type: cell-based
T1 construct: 6D9: isolated by dilution subcloning of RMS13 cells, ATCC® Number: CRL-2061; host or cells: 6D9 human rhabdomyosarcoma cells (subclone of RMS13)
T1 sequence (Q9UKP6 1-389): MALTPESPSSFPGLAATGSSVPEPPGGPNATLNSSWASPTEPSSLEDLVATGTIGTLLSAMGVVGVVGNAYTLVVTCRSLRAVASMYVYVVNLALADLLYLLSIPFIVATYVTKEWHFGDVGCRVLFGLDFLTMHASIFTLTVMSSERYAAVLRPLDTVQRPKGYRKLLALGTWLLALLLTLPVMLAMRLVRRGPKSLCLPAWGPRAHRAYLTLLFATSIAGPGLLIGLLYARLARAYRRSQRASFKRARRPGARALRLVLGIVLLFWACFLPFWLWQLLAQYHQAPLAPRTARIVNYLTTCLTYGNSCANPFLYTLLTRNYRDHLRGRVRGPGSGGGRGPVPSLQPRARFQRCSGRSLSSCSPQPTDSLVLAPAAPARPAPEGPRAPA
Procedure: 25 μL of dye solution was added to the wells such that the final liquid volume before agonist/antagonist treatment was 50 μL for all assays. The cell plates were incubated at 37° C. for 45 minutes and the fluorescence intensity was measured on a Fluorometric Imaging Plate Reader (FLIPR^TETRA, Molecular Devices, Sunnyvale, Calif.).
Antagonist and agonist U-II were added at room temperature on the FLIPR^TETRA, and the fluorescence intensity before and after addition was measured over a period of 4 minutes. The dye incubation time and temperature as well as instrument setting was adjusted so the fluorescence intensity could be compared between plates on the same day. EC50 and IC50 were analyzed using GraphPad Prism 4 software (GraphPad Software Inc., San Diego, Calif.).
For assays, U-II agonist, U-II antagonist and urantide were diluted with HBSS/HEPES containing 0.01% FBS.
Test compounds were dissolved in DMSO at 10 mM concentration. The serial dilutions were carried out in HBSS/HEPES. The highest final DMSO concentration was at 0.1%.

[2] = target: T2, UT receptors in HSMM (Human Skeletal Muscle Myoblasts) (Homo sapiens, UniProt Q9UKP6); experiment: Human Radioligand Binding Assay ((^125I)-U-II binding to intact HSMM)
T2 sequence (Q9UKP6 1-389): T1 sequence (Q9UKP6 1-389)

[3] = target: T3, rat GPR14 (U-II receptor) (Rattus norvegicus, UniProt P49684); experiment: Rat UII Calcium Mobilization FLIPR Assay; type: cell-based; conditions: CHO cells transfected with rat GPR14; antagonist activity after 5 min incubation vs agonist (Ac)-CFWK(2-NaI)C-NH2 at 1 nM
T3 construct: expressed in transfected cells
T3 sequence (P49684 1-386): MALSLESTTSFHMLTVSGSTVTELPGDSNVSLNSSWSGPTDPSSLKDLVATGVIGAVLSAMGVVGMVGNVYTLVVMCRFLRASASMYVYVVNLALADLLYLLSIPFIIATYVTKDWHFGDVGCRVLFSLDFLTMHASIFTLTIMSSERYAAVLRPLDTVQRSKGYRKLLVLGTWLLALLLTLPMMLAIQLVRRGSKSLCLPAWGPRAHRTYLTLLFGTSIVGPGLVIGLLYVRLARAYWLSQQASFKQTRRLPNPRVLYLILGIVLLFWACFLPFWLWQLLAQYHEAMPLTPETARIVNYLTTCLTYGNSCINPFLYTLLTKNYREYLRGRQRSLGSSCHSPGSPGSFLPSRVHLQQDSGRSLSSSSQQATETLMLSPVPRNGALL
Text: To derive these cells, the complete coding sequence of rat U-II (Genbank Accession No. U32673) was amplified by nested PCR from rat heart marathon-Ready cDNA. […] The PCR products were cloned into pcDNA3 (Invitrogen) digested with EcoR I and Xba I. Clones containing rat U-II receptor were verified by complete sequencing of the U-II receptor insert to ensure a lack of PCR-introduced errors. The constructed vector was transfected into CHO cells by using lipofectamine (GIBCO BRL). CHO cells with high expression of rat U-II receptor were selected and established as stable cell lines by using G418. CHO cells were seeded at 25,000 cells per well into 96-well, black-wall, clear-bottom microtiter plates 24 h before assay. Cells in culture media (DMEM/F12 containing 15 mM HEPES, L-glutamine, pyridoxine hydrochloride; 10% fetal bovine serum; 1 mg/mL G418 sulfate; antibiotic-antimycotic; pH 7.4) were loaded with proprietary dye, from the FLIPR Calcium Assay Kit (Molecular Devices), prepared in assay buffer (Hanks Balanced Salts Solution, 20 mM HEPES, 0.1% BSA, 2.5 mM probenecid, pH 7.4), and incubated for 1 h at 37° C. Calcium mobilization determinations were performed at room temperature (23° C.).

[4] = 6D9 human rhabdomyosarcoma cells, FLIPR TETRA, average, read-out: Human UII Ca+ Mobilization Average IC50

SMILES	IC50 [1, 4]	Ki [2]	IC50 [3]	IC50 [1]
CCN1CCN(c2cccc3c2CN([C@H](CCCN(C)Cc2ccccc2F)c2ccc(OC)c(OC)c2)C3=O)CC1 [Cpd 97, 2-{(1R)-1-(3,4-dimethoxy-phenyl)-4-[(2-fluoro-benzyl)-methyl-amino]-butyl}-4-(4-ethyl-piperazin-1-yl)-2,3-dihydro-isoindol-1-one]	56 nM	26 nM	4 nM	
CCN1CCN(c2cccc3c2CN([C@H](CCCOCc2cccc(C)c2)c2ccc(OC)c(OC)c2)C3=O)CC1 [Cpd 55, 2-[(1R)-1-(3,4-dimethoxy-phenyl)-4-(3-methyl-benzyloxy)-butyl]-4-(4-ethyl-piperazin-1-yl)-2,3-dihydro-isoindol-1-one]	> 10000 nM		2150 nM	
CCN1CCN(c2cccc3c2CN([C@H](CCCOCc2c(F)cccc2F)c2ccc(OC)c(OC)c2)C3=O)CC1 [Cpd 46, 2-[(1R)-4-(2,6-difluoro-benzyloxy)-1-(3,4-dimethoxy-phenyl)-butyl]-4-(4-ethyl-piperazin-1-yl)-2,3-dihydro-isoindol-1-one]	> 10000 nM	> 300 nM	7730 nM	
COc1ccc([C@@H](CCCOc2ccccc2)N2Cc3c(cccc3N3CCN(C4CC4)CC3)C2=O)cc1OC [Cpd 28, 4-(4-cyclopropyl-piperazin-1-yl)-2-[(1R)-1-(3,4-dimethoxy-phenyl)-4-phenoxy-butyl]-2,3-dihydro-isoindol-1-one]	1210 nM	154 nM	25 nM	
CCN1CCN(c2cccc3c2CN([C@H](CCCNC(=O)C2CCC2)c2ccc(OC)c(OC)c2)C3=O)CC1 [Cpd 80, cyclobutanecarboxylic acid {(4R)-4-(3,4-dimethoxy-phenyl)-4-[4-(4-ethyl-piperazin-1-yl)-1-oxo-1,3-dihydro-isoindol-2-yl]-butyl}-amide]	311 nM	18 nM	21 nM	
COc1ccc([C@@H](CCCNC(=O)c2cnoc2C)N2Cc3c(cccc3N3CCN(C(C)c4ccccc4)CC3)C2=O)cc1OC (stereo partly drawn) [Cpd 85, 5-methyl-isoxazole-4-carboxylic acid ((4R)-4-(3,4-dimethoxy-phenyl)-4-{1-oxo-4-[4-(1-phenyl-ethyl)-piperazin-1-yl]-1,3-dihydro-isoindol-2-yl}-butyl)-amide]		15 nM	6 nM	325 nM
COc1ccc([C@@H](CCCOc2ccccc2)N2Cc3c(cccc3N3CCNCC3)C2=O)cc1OC [Cpd 37, 2-[(1R)-1-(3,4-dimethoxy-phenyl)-4-phenoxy-butyl]-4-piperazin-1-yl-2,3-dihydro-isoindol-1-one]	448 nM	50 nM	14 nM	
COc1ccc([C@@H](CCCOc2ccccc2)N2Cc3c(cccc3N3CCN(Cc4ccccc4)CC3)C2=O)cc1OC [Cpd 34, 4-(4-benzyl-piperazin-1-yl)-2-[(1R)-1-(3,4-dimethoxy-phenyl)-4-phenoxy-butyl]-2,3-dihydro-isoindol-1-one]	310 nM	32 nM	105 nM	
CCN1CCN(c2cccc3c2CN([C@H](CCCn2cncn2)c2ccc(OC)c(OC)c2)C3=O)CC1 [Cpd 25, 2-[(1R)-1-(3,4-dimethoxy-phenyl)-4-[1,2,4]triazol-1-yl-butyl]-4-(4-ethyl-piperazin-1-yl)-2,3-dihydro-isoindol-1-one]	2110 nM	301 nM	145 nM	
CCN1CCN(c2cccc3c2CN([C@H](CCCN(Cc2ccc(F)cc2)C(C)=O)c2ccc(OC)c(OC)c2)C3=O)CC1 [Cpd 88, N-{(4R)-4-(3,4-dimethoxy-phenyl)-4-[4-(4-ethyl-piperazin-1-yl)-1-oxo-1,3-dihydro-isoindol-2-yl]-butyl}-N-(4-fluoro-benzyl)-acetamide]		10 nM	6 nM	
CCN1CCN(c2cccc3c2CN([C@H](CCCNS(=O)(=O)c2cn(C)c(C)n2)c2ccc(OC)c(OC)c2)C3=O)CC1 [Cpd 82, 1,2-dimethyl-1H-imidazole-4-sulfonic acid {(4R)-4-(3,4-dimethoxy-phenyl)-4-[4-(4-ethyl-piperazin-1-yl)-1-oxo-1,3-dihydro-isoindol-2-yl]-butyl}-amide]	51 nM	25 nM	23 nM	
COc1ccc([C@@H](CCCNc2nccc(C(F)(F)F)n2)N2Cc3c(cccc3N3CCN(Cc4ccccc4)CC3)C2=O)cc1OC [Cpd 5, 4-(4-benzyl-piperazin-1-yl)-2-[(1R)-1-(3,4-dimethoxy-phenyl)-4-(4-trifluoromethyl-pyrimidin-2-ylamino)-butyl]-2,3-dihydro-isoindol-1-one]	857 nM	45 nM	16 nM	
COc1ccc([C@@H](CCCSc2nnnn2C)N2Cc3c(cccc3N3CCNCC3)C2=O)cc1OC [Cpd 24, 2-[(1R)-1-(3,4-dimethoxy-phenyl)-4-(1-methyl-1H-tetrazol-5-ylsulfanyl)-butyl]-4-piperazin-1-yl-2,3-dihydro-isoindol-1-one]	1550 nM		165 nM	
CCN1CCN(c2cccc3c2CN([C@H](CCCN(C)S(=O)(=O)c2cccs2)c2ccc(OC)c(OC)c2)C3=O)CC1 [Cpd 62, thiophene-2-sulfonic acid {(4R)-4-(3,4-dimethoxy-phenyl)-4-[4-(4-ethyl-piperazin-1-yl)-1-oxo-1,3-dihydro-isoindol-2-yl]-butyl}-methyl-amide]	88 nM		7 nM	
CCN1CCN(c2cccc3c2CN([C@H](CCc2ccc4c(n2)NCCC4)c2ccc(OC)c(OC)c2)C3=O)CC1 [Cpd 86, 2-[(1R)-1-(3,4-dimethoxy-phenyl)-3-(5,6,7,8-tetrahydro-[1,8]naphthyridin-2-yl)-propyl]-4-(4-ethyl-piperazin-1-yl)-2,3-dihydro-isoindol-1-one]		386 nM	< 1000 nM	
CCN1CCN(c2cccc3c2CN([C@H](CCCOCc2cccc(F)c2)c2ccc(OC)c(OC)c2)C3=O)CC1 [Cpd 52, 2-[(1R)-1-(3,4-dimethoxy-phenyl)-4-(3-fluoro-benzyloxy)-butyl]-4-(4-ethyl-piperazin-1-yl)-2,3-dihydro-isoindol-1-one]	> 10000 nM		3130 nM	
COc1ccc([C@@H](CCCN(C)S(=O)(=O)c2cccs2)N2Cc3c(cccc3N3CCN(C)CC3)C2=O)cc1OC [Cpd 26, thiophene-2-sulfonic acid {(4R)-4-(3,4-dimethoxy-phenyl)-4-[4-(4-methyl-piperazin-1-yl)-1-oxo-1,3-dihydro-isoindol-2-yl]-butyl}-methyl-amide]	337 nM		16 nM	
CCN1CCN(c2cccc3c2CN([C@H](CCCNc2ccc4ccccc4n2)c2ccc(OC)c(OC)c2)C3=O)CC1 [Cpd 89, 2-[(1R)-1-(3,4-dimethoxy-phenyl)-4-(quinolin-2-ylamino)-butyl]-4-(4-ethyl-piperazin-1-yl)-2,3-dihydro-isoindol-1-one]		> 300 nM	260 nM	
CCN1CCN(c2cccc3c2CN([C@H](CCCc2ccccc2)c2ccc(OC)c(OC)c2)C3=O)CC1 [Cpd 87, 2-[(1R)-1-(3,4-dimethoxy-phenyl)-4-phenyl-butyl]-4-(4-ethyl-piperazin-1-yl)-2,3-dihydro-isoindol-1-one]		37 nM	6 nM	

From patent US8008299B2, “Urotensin II receptor antagonists” (Janssen Pharmaceutica, N.V., priority 2007, dated 2011)
